Measurements from patent US4485109A, “4-Aryl-4-piperidinecarbinols” (E. I. Du Pont de Nemours and Company, priority 1983, dated 1984).
Read-outs that look alike come from different tables or passages of the source.

Tests used:
[1] = tested on: tetrabenazine-induced depression; assay: Antagonism (prevention) of tetrabenazine-induced sedation and depression in mice, orally; type: in vivo, mice (Carworth CF1 S female); details: Mus musculus, 1 h, tetrabenazine 32 mg/kg i.p. 30 min after compound
Excerpt: A standard procedure for detecting and comparing the antidepressant activity of the compounds of this invention, for which there is good correlation with human efficacy, is the prevention of tetrabenazine-induced sedation and depression in mice. (Everett, "The Dopa Response Potentiation Test and Its Use in Screening for Antidepressant Drugs", pp. 164-167 in Antidepressant Drugs [Proceedings of the First International Symposium], S. Garattini and M. N. G. Dukes (editors), 1967).
Groups of 10 Carworth CF1 S female mice, 18-21 g each, each fasted 1.5 h and were intubated with antagonist compounds at oral doses, such as 0, 1, 3, 9, 27 and 81 mg/kg in 0.20 mL of 1% Methocel® (methylcellulose).The mice were challenged 30 minutes later with tetrabenazine (as the methanesulfonate), 32 mg/kg intraperitoneally (dissolved in 0.20 mL 0.05% aqueous KCl at pH 2.0). One hour after administration of antagonist (30 minutes after administration of tetrabenazine) the mice were examined for signs of exploratory activity and ptosis (eye lid closure). Normal exploratory activity (relief from sedation) was recorded when a mouse, lifted by the tail from a group of 10 in a testing box and placed on a stainless steel testing box lid (12.5 inch (31.8 cm) by 8 inch (20.3 cm) with 0.33 inch mesh), either turned its head horizontally 30° in both directions or moved to the edge of the screen within 10 seconds after being placed on the screen. Relief from ptosis was recorded when, at exactly two seconds after placing the mouse facing the observer, lid closure was less than 50% in both eyes.

[2] = Anorexia test from CNS screen (milk consumption in fasted mice); type: in vivo; details: Mus musculus, po, 0.5 h, fasted female mice, 0.5 h after dosing, 30 min milk access, ED50 estimated from quantal responses
Description: Female mice weighing 16-20 grams and fasted overnight for 17-21 h are used in these studies. At 0.5 h after administration of graded oral doses of compound prepared in aqueous Methocel® (methylcellulose, viscosity 100 CPS, grade MC, Dow Chemical Co.) and 2.8% Tween 80 and dosed at 0.1 mL per 10 grams of body weight, each mouse is transferred to an individual, clear, Lucite® compartment (13.3 cm×12.7 cm×12.7 cm) with a 0.64 cm×0.64 cm wire mesh floor. Five compartments are linearly arranged in each cage unit. Inside each compartment is a section of a black Lucite® bar (13 cm×1.2 cm×1.2 cm), in the top of which are ten spot depressions (0.8 cm diameter), each containing 0.05 mL of 50% sweetened condensed milk (Borden's Eagle Brand). 30 Minutes later the mice are returned to the "shoe-box" containers and the number of milk spots consumed by each mouse is counted. Fractions of spots consumed are also estimated and counted. Five mice […] per drug dose can drink a maximum of 50 spots (2.5 mL of milk). Nine or fewer spots consumed by 5 mice is considered to indicate anorexia. ED50 values are estimated based on the quantal responses obtained.

[3] = po, read-out: ORAL ED50 for prevention of exploratory loss, mice, oral, at one hour post-drug
[4] = po, read-out: ORAL ED50 for prevention of ptosis, mice, oral, at one hour post-drug

Structure (SMILES)	ED50 [1, 3] [mg/kg]	ED50 [1, 4] [mg/kg]	ED50 ([1]; mice, oral, at one hour post-drug, read-out: ORAL ED50 for prevention of exploratory loss) [mg/kg]	ED50 ([1]; mice, oral, at one hour post-drug, read-out: ORAL ED50 for prevention of ptosis) [mg/kg]	ED50 [2] [mg/kg]
CC1CCC(O)(C2(c3cccc(C(F)(F)F)c3)CCN(C)CC2)C1 (racemic) [Example 46, (±)-cis and trans-3-Methyl-1-[1'-methyl-4'-(3"-trifluoromethylphenyl)-4'-piperidinyl]cyclopentanol]	< 1	< 1	–	–	–
CC1CCC(O)(C2(c3cccc(C(F)(F)F)c3)CCN(C)CC2)C1 (single isomer, unassigned; (-)) [Example 47, (-)-cis and trans-3-Methyl-1-[1'-methyl-4'-(3"-trifluoromethylphenyl)-4'-piperidinyl]cyclopentanol]	< 1	< 1	–	–	–
CN(C)CCC=C1c2ccccc2CCc2ccccc21 [Amtriptyline, reference compound]	–	–	2.7	0.7	–
CN1CCC(c2ccccc2)(C(C)(C)O)CC1 [Example 1, 4-Phenyl-α,α,1-trimethyl-4-piperidinemethanol]	5.6	0.78	–	–	–
CN1CCC(c2cccc(C(F)(F)F)c2)(C(C)(C)O)CC1 [Example 2, 4-(3'-Trifluoromethylphenyl)-α,α,1-trimethyl-4-piperidinemethanol]	0.01	0.016	–	–	60
COc1cccc(C2(C3(O)CCCC3)CCN(C)CC2)c1OC [Example 3, 1-[1'-Methyl-4'-(2",3"-dimethoxyphenyl)-4'-piperidinyl]cyclopentanol]	14	2.8	–	–	–
CN1CCC(c2ccc(F)cc2)(C(C)(C)O)CC1 [Example 5, 4-(4'-Fluorophenyl)-α,α,1-trimethyl-4-piperidinemethanol]	0.48	0.33	–	–	–
Cc1ccccc1C1(C(C)(C)O)CCN(C)CC1 [Example 9, 4-(2'-Tolyl)-α,α,1-trimethyl-4-piperidinemethanol]	0.48	0.33	–	–	–
Cc1ccc(C2(C(C)(C)O)CCN(C)CC2)cc1 [Example 11, 4-(4'-Tolyl)-α,α,1-trimethyl-4-piperidinemethanol]	0.69	0.57	–	–	–
Cc1cc(C)cc(C2(C(C)(C)O)CCN(C)CC2)c1 [Example 12, 4-(5'-m-Xylyl)-α,α,1-trimethyl-4-piperidinemethanol]	0.11	0.064	–	–	–
Cc1ccc(C2(C(C)(C)O)CCN(C)CC2)cc1C [Example 13, 4-(4'-o-Xylyl)-α,α,1-trimethyl-4-piperidinemethanol]	0.3	0.23	–	–	–
COc1cccc(C2(C(C)(C)O)CCNCC2)c1 [Example 14, 4-(3'-Methoxyphenyl)-α,α-dimethyl-4-piperidinemethanol]	4.4	2.7	–	–	–
COc1ccccc1C1(C(C)(C)O)CCN(C)CC1 [Example 15, 4-(2'-Methoxyphenyl)-α,α,1-trimethyl-4-piperidinemethanol]	2.3	0.57	–	–	–
CCC(O)(CC)C1(c2cccc(OC)c2)CCN(C)CC1 [Example 18, 4-(3'-Methoxyphenyl)-α,α-diethyl-1-methyl-4-piperidinemethanol]	0.71	0.71	–	–	–
COc1ccc(C2(C(C)(C)O)CCN(C)CC2)cc1 [Example 19, 4-(4'-Methoxyphenyl)-α,α,1-trimethyl-4-piperidinemethanol]	1.1	0.33	–	–	–
COc1cccc(C2(C(C)(C)O)CCN(C)CC2)c1OC [Example 20, 4-(2',3'-Dimethoxyphenyl)-α,α,1-trimethyl-4-piperidinemethanol]	4.6	2.1	–	–	–
CSc1ccc(C2(C(C)(C)O)CCN(C)CC2)cc1 [Example 21, 4-(4'-Methylthiophenyl)-α,α,1-trimethyl-4-piperidinemethanol]	1.3	1.3	–	–	–
COc1cccc(C2(C3(O)CCC3)CCN(C)CC2)c1 [Example 22, 1-[1'-Methyl-4'-(3"-methoxyphenyl)-4'-piperidinyl]cyclobutanol]	0.92	0.67	–	–	–

Structure (SMILES)	ED50 [1, 3] [mg/kg]	ED50 [1, 4] [mg/kg]	ED50 ([1]; mice, oral, at one hour post-drug, read-out: ORAL ED50 for prevention of exploratory loss) [mg/kg]	ED50 ([1]; mice, oral, at one hour post-drug, read-out: ORAL ED50 for prevention of ptosis) [mg/kg]	ED50 [2] [mg/kg]
COc1cccc(C2(C3(O)CCCCC3)CCN(C)CC2)c1OC [Example 23, 1-[1'-Methyl-4'-(2",3"-dimethoxyphenyl)-4'-piperidinyl]cyclohexanol]	38	17	–	–	–
CN1CCC(c2cccn2C)(C(C)(C)O)CC1 [Example 24, 4-(1'-Methyl-2'-pyrrolyl)-α,α,1-trimethyl-4-piperidinemethanol]	1.2	0.78	–	–	–
Cc1ccc(C2(C(C)(C)O)CCN(C)CC2)s1 [Example 25, 4-(5'-Methyl-2'-thienyl)-α,α,1-trimethyl-4-piperidinemethanol]	0.99	0.69	–	–	–
CN1CCC(c2cccnc2)(C(C)(C)O)CC1 [Example 26, 4-(3'-Pyridyl)-α,α,1-trimethyl-4-piperidinemethanol]	29	18	–	–	–
COc1cccc(C2(C3(O)CCCCCC3)CCN(C)CC2)c1 [Example 27, 1-[1'-Methyl-4'-(3"-methoxyphenyl)-4'-piperidinyl]cycloheptanol]	1.4	0.9	–	–	–
COc1cccc(C2(C3(O)CCCCCCC3)CCN(C)CC2)c1 [Example 28, 1-[1'-Methyl-4'-(3"-methoxyphenyl)-4'-piperidinyl]cyclooctanol]	3.8	1.7	–	–	–
COc1ccc(OC)c(C2(C(C)(C)O)CCN(C)CC2)c1 [Example 29, 4-(2',5'-Dimethoxyphenyl)-α,α,1-trimethyl-4-piperidinemethanol]	0.99	0.86	–	–	–
CN1CCC(c2ccc(N(C)C)cc2)(C(C)(C)O)CC1 [Example 33, 4-(4'-Dimethylaminophenyl)-α,α,1-trimethyl-4-piperidinemethanol]	0.78	0.35	–	–	–
COc1cccc(C2(C3(O)CCCC3)CCN(C)CC2)c1 [Example 34, 1[1'-Methyl-4'-(3"-methoxyphenyl)-4'-piperidine]cyclopentanol]	0.48	0.45	–	–	–
COc1cccc(C2(C3(O)CCCCC3)CCN(C)CC2)c1 [Example 35, 1[1'-Methyl-4'-(3"-methoxyphenyl)-4'-piperidine]cyclohexanol]	1.4	1.1	–	–	–
CN1CCC(c2cccc(-c3ccccc3)c2)(C(C)(C)O)CC1 [Example 36, 4-(3'-Biphenylyl)-α,α,1-trimethyl-4-piperidinemethanol]	1.1	0.66	–	–	–
COc1cccc(C2(C3(O)CCCC3)CCN(Cc3ccccc3)CC2)c1OC [Example 38, 1-[1'-Benzyl-4'-(2",3"-dimethoxyphenyl)-4'-piperidinyl]cyclopentanol]	> 81	> 81	–	–	–
CCOc1cccc(C2(C(C)(C)O)CCN(C)CC2)c1 [Example 40, 4-(3'-Ethoxyphenyl)-α,α,1-trimethyl-4-piperidinemethanol]	0.9	0.9	–	–	–
CN1CCC(c2ccc(-c3ccccc3)cc2)(C(C)(C)O)CC1 [Example 42, 4-(4'-Biphenylyl)-α,α,1-trimethyl-4-piperidinemethanol]	1.5	1	–	–	–
COc1cccc(C2(C(C)(C)O)CCN(C)CC2C)c1 (stereo not drawn) [Example 43, 4-(3'-Methoxyphenyl)-α,α,1,3-tetramethyl-4-piperidinemethanol]	7.2	5.8	–	–	–
Cc1cccc(C2(C(C)(C)O)CCN(C)C(C)C2)c1 (stereo not drawn) [Example 44, 4-(3'-Tolyl)-α,α,1,2-tetramethyl-4-piperidinemethanol]	0.33	0.33	–	–	–
CC(C)(O)C1(c2cccc(C(F)(F)F)c2)CCN2CCCC2C1 (stereo not drawn) [Example 45, 7-(3'-Trifluoromethylphenyl)-α,α-dimethyl-7-indolizidinemethano]	< 0.33	0.48	–	–	–
CN(C)CCCN1c2ccccc2CCc2ccccc21 [Imipramine, reference compound]	2.2	0.94	–	–	–
